Test results taken from patent publication US5244916A, “Inhibition of respiratory burst using posttranslational modification inhibitors” (The Scripps Research Institute, priority 1992, dated 1993).

What was measured:
[1] = test system: HL-60 cells (NADPH oxidase / respiratory burst); experiment: Prevention of compactin-inhibition of FMLP-stimulated O2- formation in HL-60 cells by mevalonic acid and other supplements; format: cell-based; conditions: for block in NADPH oxidase activity / cellular responsiveness after supplementation: compactin-treated HL-60 cells, exogenous supplement
Description: (§1) HL-60 cells were maintained in stationary culture in RPMI 1640 medium (Gibco, Grand Island, NY) containing 10% fetal bovine serum at 37° C in an atmosphere of 95 air and 5% CO2. The cells (about 8×10^5 /ml) were differentiated into neutrophil-like cells by treatment with 1.3% DMSO for six days (Harris, et al., J. Leukocyte Biol. 37: 407-422 (1985)). The cells were treated with the indicated levels of compactin or lovastatin by addition of a 1,000-fold concentrated stock solution to the appropriate concentration on day 4 of differentiation. […] In studies of the protective effect of mevalonic acid, the compound was added as the mevalonolactone (Sigma Chemical Co., St. Louis, MO) at a concentration of 1 mM to the cell culture on days 4 to 6. Similarly, cholesterol was added in the form of LDL prepared according to the method of Curtiss and Edgington (Curtiss, et al., J. Biol. Chem. 257: 15213-15221 (1991)) at a final concentration of 50 μg/ml; ubiquinone (Sigma Chemical Co., St. Louis, MO) was added as Coenzyme Q-10 at a final concentration of 0.5 mM; and dolichol (Sigma Chemical Co., St. Louis, MO) was added as a dispersion in phosphatidylcholine at a final concentration of 0.5 mM (Cutts, et al., J. Cell Physiol. 139: 550-555 (1989)).
O2 --formation by HL-60 cells was assessed by the SOD-sensitive reduction of cytochrome c. Cells were suspended at 1×10^7 /ml in Krebs-Ringer Hepes buffer with 5.5 mM glucose (KRHG) and 50-100μl of cells were added to a cuvette containing 100 μM cytochrome c (type III, Sigma Chemical Co., St. Louis, MO), ±300 μg/ml SOD (Sigma Chemical Co., St. Louis, MO) in 700-750 μl KRHG. Cytochalasin b (Sigma Chemical Co., St. Louis, MO) was added to a final concentration of 5 μg/ml, and the cells were incubated at 37° C. for five minutes while a stable baseline at a wavelength of 550 nm was obtained. O2 --formation was initiated by the addition of 1 μM N-formylmethionylleucylphenylalanine (FMLP; Sigma Chemical Co., St. Louis, MO) or 1μg/ml phorbol myristate acetate (PMA; Sigma Chemical Co., St. Louis, MO). Cytochrome c reduction at 550nm was continuously monitored and maximal rate and extent of the reaction calculated.
Inhibition of protein isoprenylation can interfere with LMWG function without inhibiting overall cellular function (Maltese, supra (1990)). Since compactin inhibits at the enzymatic step preceding mevalonic acid synthesis, one should be able to reverse effects of compactin due specifically to inhibition of this pathway by addition of exogenous mevalonic acid.

[2] = test system: HL-60 cells; experiment: HL-60 cell viability by propidium iodide uptake (flow cytometry)
Description: as §1, with “The cells were treated with the indicated levels of compactin or lovastatin by addition of a 1,000-fold concentrated stock solution to the appropriate concentration on day 4 of differentiation.” left out
Cell viability was determined by uptake of propidium iodide (537-059; Calbiochem-Behring Corp., La Jolla, CA), detected from the emission fluorescence at 625/35 nm using a DM560 dichronic mirror (Krishan, J. Cell. Biol. 66: 188-192 (1975)). Expression of N-formyl peptide receptor was determined using fluorescein-labeled N-CHONle-Leu-Phe-Nle-Tyr-Lys (Molecular Probes, Inc., Eugene, OR) essentially by the method of Sklar and Finney (Sklar and Finney, Cytometry 3: 161-165 (1982)). Specificity of ligand binding was determined in the presence of 4 mM unlabeled T-boc peptide. CD14 expression was determined using monoclonal antibody 3C10 at a dilution of 1:1,000 (see Goyert and Ferrero, in Leucocyte Typing III: White Cell Differentiation Antigens, McMichael, ed., Oxford Univ. Press, NY, pp. 613-619 (1988)), with detection using a fluorescein-labeled secondary antibody. Flow cytometric analyses were performed on a FACSIV (registered trademark of Becton-Dickinson, San Jose, CA) equipped with a 2W argon laser (Coherent Inc., Palo Alto, collected in list mode and analyzed using the Consort 30 program (Becton-Dickinson, San Jose, CA) after collecting 10,000 events.

[3] = test system: NADPH oxidase in HL-60 cells; experiment: Inhibition of NADPH oxidase activation / O2- generation in HL-60 cells (stimulus not singled out); format: cell-based
Description: as §1, with “(1989)). O2 --formation by HL-60 cells was assessed by the SOD-sensitive reduction of cytochrome c. Cells were suspended at 1×10^7 /ml in Krebs-Ringer Hepes buffer with 5.5 mM glucose (KRHG) and 50-100μl of cells were added to a cuvette containing 100 μM cytochrome c (type III, Sigma Chemical Co., St. Louis, MO), ±300 μg/ml SOD (Sigma Chemical Co., St. Louis, MO) in 700-750 μl KRHG. Cytochalasin b (Sigma Chemical Co., St. Louis, MO) was added to a final concentration of 5 μg/ml, and the cells were incubated at 37° C. for five minutes while a stable baseline at a wavelength of 550 nm was obtained. O2 --formation was initiated by the addition of 1 μM N-formylmethionylleucylphenylalanine (FMLP; Sigma Chemical Co., St. Louis, MO) or 1μg/ml phorbol myristate acetate (PMA; Sigma Chemical Co., St. Louis, MO). Cytochrome c reduction at 550nm was continuously monitored and maximal rate and extent of the reaction calculated.” for “(1989)).”

## CC(C)CCC[C@@H](C)[C@H]1CC[C@H]2[C@@H]3CC=C4C[C@@H](O)CC[C@]4(C)[C@H]3CC[C@]12C [cholesterol]
[1]; 50 μg/ml LDL cholesterol
  effect on compactin blockade of oxidase activity: no effect
[1]; 50 μg/ml cholesterol, no compactin, n = 2
  FMLP-stimulated O2- formation, Extent: 99 % of control
[1]; 50 μg/μl cholesterol, no compactin, n = 2
  FMLP-stimulated O2- formation, Rate: 90 % of control
[1]
  block in NADPH oxidase activity / cellular responsiveness after supplementation: apparently not overcome

## CC[C@H](C)C(=O)O[C@H]1C[C@@H](C)C=C2C=C[C@H](C)[C@H](CC[C@@H]3C[C@@H](O)CC(=O)O3)[C@H]21 [lovastatin]
[2]
  cell viability when inhibitor added at day 1 of differentiation: somewhat decreased
[3]
  inhibition of NADPH oxidase activation, effective concentrations: micromolar concentrations
[3]; response to receptor stimuli and downstream activators
  ability of HL-60 cells to generate O2-: markedly inhibited

## C[C@@](O)(CCO)CC(=O)O [mevalonic acid]
[1]; 1 mM mevalonate, no compactin
  FMLP-stimulated O2- formation, Extent: 111 ± 8.0 % of control
  FMLP-stimulated O2- formation, Rate: 120 ± 10 % of control
[1]; 1 mM mevalonic acid (as mevalonolactone), 4 or 10 μM compactin
  reversal of compactin inhibition of O2- formation: nearly completely reversed
[1]
  block in NADPH oxidase activity / cellular responsiveness after supplementation: totally restored
[1]; no compactin
  effect on control rate or extent of O2- formation: no consistent effect

## COC1=C(OC)C(=O)C(C/C=C(\C)CC/C=C(\C)CC/C=C(\C)CC/C=C(\C)CC/C=C(\C)CC/C=C(\C)CC/C=C(\C)CC/C=C(\C)CC/C=C(\C)CCC=C(C)C)=C(C)C1=O [ubiquinone]
[1]; 0.5 mM ubiquinone
  effect on compactin blockade of oxidase activity: no effect
[1]
  block in NADPH oxidase activity / cellular responsiveness after supplementation: apparently not overcome

## dolichol
[1]; 0.5 mM dolichol
  effect on compactin blockade of oxidase activity: no effect
[1]
  block in NADPH oxidase activity / cellular responsiveness after supplementation: apparently not overcome
